# From PubChem BioAssay (NCI)
#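 Interpolation was linear, between the two tested concentrations surrounding the appropriate level; five concentrations were tested over 48 hours in 96-well plates. GI50: concentration for 50% inhibition of growth. TGI denotes the concentration required for complete inhibition of growth.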
# How the values were obtained:
# Test in all cases: DTP human tumour cell line panel, 48 h
# [1] = system: 786-0 renal
# [2] = system: T-47D breast
# [3] = system: MOLT-4 leukemia
# [4] = system: HCT-15 colon
# [5] = system: CCRF-CEM leukemia
# [6] = system: SW-620 colon
# [7] = system: COLO 205 colon
# [8] = system: A549 NSCLC
# [9] = system: RXF 393 renal
# [10] = system: RPMI-8226 leukemia
# [11] = system: MCF7 breast
# [12] = system: UACC-62 melanoma
# [13] = system: HS 578T breast
# [14] = system: OVCAR-4 ovarian
# [15] = system: CAKI-1 renal
# [16] = system: K-562 leukemia
# [17] = system: SK-OV-3 ovarian
# [18] = system: DU-145 prostate
# [19] = system: NCI/ADR-RES ovarian
# [20] = system: OVCAR-3 ovarian
# [21] = system: SF-295 CNS
# [22] = system: U251 CNS
# [23] = system: SF-268 CNS
# [24] = system: SK-MEL-2 melanoma
# [25] = system: SK-MEL-28 melanoma
# [26] = system: NCI-H226 lung
# [27] = system: KM12 colon
# [28] = system: A498 renal
# [29] = system: SNB-19 CNS
# [30] = system: HL-60(TB) leukemia
# [31] = system: IGROV1 ovarian
# [32] = system: ACHN renal
# [33] = system: SF-539 CNS
# [34] = system: SN12C renal
# [35] = system: OVCAR-8 ovarian
# [36] = system: SR leukemia
# [37] = system: PC-3 prostate
# [38] = system: MALME-3M melanoma
# [39] = system: NCI-H522 lung
# [40] = system: HCT-116 colon
# [41] = system: M14 melanoma
# [42] = system: MDA-MB-435
# [43] = system: OVCAR-5 ovarian
# [44] = system: HOP-62 NSCLC
# [45] = system: LOX IMVI melanoma
# [46] = system: HT29 colon
# [47] = system: SK-MEL-5 melanoma
# [48] = system: NCI-H23 lung
# [49] = system: MDA-MB-231 breast
# [50] = system: HCC-2998 colon
# [51] = system: UACC-257 melanoma
# [52] = system: UO-31 renal
# [53] = system: SNB-75 CNS
# [54] = system: NCI-H460 lung
# [55] = system: BT-549 breast
# [56] = system: HOP-92 NSCLC
# [57] = system: EKVX NSCLC
# [58] = system: TK-10 renal
structure (smiles),measurement,setting,value
COc1ccc(C2=NNC(c3sc(Cl)nc3Cl)C2)cc1 (centres undefined),GI50,[1],4.06 µM
same,TGI,[1],> 100 µM
same,GI50,[2],2680 nM
same,TGI,[2],8.89 µM
same,GI50,[3],3.58 µM
same,TGI,[3],22.1 µM
same,GI50,[4],3.78 µM
same,TGI,[4],19.3 µM
same,GI50,[5],2.75 µM
same,TGI,[5],15.7 µM
same,GI50,[6],4.87 µM
same,TGI,[6],23.6 µM
same,GI50,[7],2170 nM
same,TGI,[7],4.4 µM
same,GI50,[8],29.8 µM
same,TGI,[8],> 100 µM
same,GI50,[9],18.4 µM
same,TGI,[9],46.8 µM
same,GI50,[10],3.86 µM
same,TGI,[10],19.2 µM
same,GI50,[11],3.28 µM
same,TGI,[11],16.4 µM
same,GI50,[12],6.94 µM
same,TGI,[12],21.1 µM
same,GI50,[13],16.8 µM
same,TGI,[13],67.4 µM
same,GI50,[14],11.5 µM
same,TGI,[14],25.4 µM
same,GI50,[15],11.8 µM
same,TGI,[15],39.4 µM
same,GI50,[16],3.63 µM
same,TGI,[16],36.8 µM
same,GI50,[17],13.2 µM
same,TGI,[17],51.4 µM
same,GI50,[18],7.38 µM
same,TGI,[18],20.4 µM
same,GI50,[19],10.2 µM
same,TGI,[19],> 100 µM
same,GI50,[20],3.26 µM
same,TGI,[20],8.79 µM
same,GI50,[21],25.1 µM
same,TGI,[21],77.9 µM
same,GI50,[22],9.08 µM
same,TGI,[22],22.1 µM
same,GI50,[23],5.65 µM
same,TGI,[23],27.5 µM
same,GI50,[24],5.47 µM
same,TGI,[24],21 µM
same,GI50,[25],10.9 µM
same,TGI,[25],24.8 µM
same,GI50,[26],2.85 µM
same,TGI,[26],> 100 µM
same,GI50,[27],5.56 µM
same,TGI,[27],19.8 µM
same,GI50,[28],33.1 µM
same,TGI,[28],> 100 µM
same,GI50,[29],20.8 µM
same,TGI,[29],68.6 µM
same,GI50,[30],10.4 µM
same,TGI,[30],64.1 µM
same,GI50,[31],5.21 µM
same,TGI,[31],22.2 µM
same,GI50,[32],4.58 µM
same,TGI,[32],20.6 µM
same,GI50,[33],4.58 µM
same,TGI,[33],32 µM
same,GI50,[34],4.02 µM
same,TGI,[34],16.7 µM
same,GI50,[35],3.6 µM
same,TGI,[35],21.5 µM
same,GI50,[36],2.54 µM
same,TGI,[36],19.7 µM
same,GI50,[37],6.11 µM
same,TGI,[37],29.5 µM
same,GI50,[38],11.2 µM
same,TGI,[38],29 µM
same,GI50,[39],2.23 µM
same,TGI,[39],7.69 µM
same,GI50,[40],3.39 µM
same,TGI,[40],14.9 µM
same,GI50,[41],3.47 µM
same,TGI,[41],16.8 µM
same,GI50,[42],3.25 µM
same,TGI,[42],16.7 µM
same,GI50,[43],9.21 µM
same,TGI,[43],26.4 µM
same,GI50,[44],28.4 µM
same,TGI,[44],> 100 µM
same,GI50,[45],3.25 µM
same,TGI,[45],13.7 µM
same,GI50,[46],5.12 µM
same,TGI,[46],18.6 µM
same,GI50,[47],3.51 µM
same,TGI,[47],14.3 µM
same,GI50,[48],10.6 µM
same,TGI,[48],26.7 µM
same,GI50,[49],3.12 µM
same,TGI,[49],14 µM
same,GI50,[50],16.9 µM
same,TGI,[50],33.9 µM
same,GI50,[51],16 µM
same,TGI,[51],36.2 µM
same,GI50,[52],6.62 µM
same,TGI,[52],20.3 µM
same,GI50,[53],36.6 µM
same,TGI,[53],> 100 µM
same,GI50,[54],24.3 µM
same,TGI,[54],75.1 µM
same,GI50,[55],2.89 µM
same,TGI,[55],9.82 µM
CC(C)(C)OC(=O)NCCCCCCCCCCCCn1c2c(c3ccccc3c1=O)C(=O)c1ccccc1-2,GI50,[1],18.3 µM
same,TGI,[1],50.6 µM
same,GI50,[2],> 100000 nM
same,TGI,[2],> 100 µM
same,GI50,[3],49.4 µM
same,TGI,[3],> 100 µM
same,GI50,[4],> 100 µM
same,TGI,[4],> 100 µM
same,GI50,[5],43.3 µM
same,TGI,[5],> 100 µM
same,GI50,[6],> 100 µM
same,TGI,[6],> 100 µM
same,GI50,[7],> 100000 nM
same,TGI,[7],> 100 µM
same,GI50,[8],> 100 µM
same,TGI,[8],> 100 µM
same,GI50,[9],17.8 µM
same,TGI,[9],49.2 µM
same,GI50,[10],> 100 µM
same,TGI,[10],> 100 µM
same,GI50,[11],> 100 µM
same,TGI,[11],> 100 µM
same,GI50,[12],27.4 µM
same,TGI,[12],> 100 µM
same,GI50,[56],16.8 µM
same,TGI,[56],39.9 µM
same,GI50,[13],11.9 µM
same,TGI,[13],63.1 µM
same,GI50,[14],> 100 µM
same,TGI,[14],> 100 µM
same,GI50,[15],22 µM
same,TGI,[15],57.9 µM
same,GI50,[16],46.9 µM
same,TGI,[16],> 100 µM
same,GI50,[17],22.9 µM
same,TGI,[17],74.1 µM
same,GI50,[18],91.6 µM
same,TGI,[18],> 100 µM
same,GI50,[19],51.2 µM
same,TGI,[19],> 100 µM
same,GI50,[20],> 100 µM
same,TGI,[20],> 100 µM
same,GI50,[21],17.5 µM
same,TGI,[21],53 µM
same,GI50,[57],85.7 µM
same,TGI,[57],> 100 µM
same,GI50,[22],36 µM
same,TGI,[22],> 100 µM
same,GI50,[23],26.8 µM
same,TGI,[23],> 100 µM
same,GI50,[24],18.1 µM
same,TGI,[24],38.2 µM
same,GI50,[25],> 100 µM
same,TGI,[25],> 100 µM
same,GI50,[26],58.1 µM
same,TGI,[26],> 100 µM
same,GI50,[27],> 100 µM
same,TGI,[27],> 100 µM
same,GI50,[28],24.7 µM
same,TGI,[28],68.7 µM
same,GI50,[29],32 µM
same,TGI,[29],83.5 µM
same,GI50,[30],> 100 µM
same,TGI,[30],> 100 µM
same,GI50,[32],21.1 µM
same,TGI,[32],54.7 µM
same,GI50,[33],20.6 µM
same,TGI,[33],61.9 µM
same,GI50,[34],> 100 µM
same,TGI,[34],> 100 µM
same,GI50,[35],49.8 µM
same,TGI,[35],> 100 µM
same,GI50,[36],35 µM
same,TGI,[36],> 100 µM
same,GI50,[37],> 100 µM
same,TGI,[37],> 100 µM
same,GI50,[58],19.1 µM
same,TGI,[58],45.5 µM
same,GI50,[38],> 100 µM
same,TGI,[38],> 100 µM
same,GI50,[39],45 µM
same,TGI,[39],> 100 µM
same,GI50,[40],> 100 µM
same,TGI,[40],> 100 µM
same,GI50,[41],> 100 µM
same,TGI,[41],> 100 µM
same,GI50,[42],> 100 µM
same,TGI,[42],> 100 µM
same,GI50,[43],75.9 µM
same,TGI,[43],> 100 µM
same,GI50,[44],32.7 µM
same,TGI,[44],> 100 µM
same,GI50,[45],> 100 µM
same,TGI,[45],> 100 µM
same,GI50,[46],> 100 µM
same,TGI,[46],> 100 µM
same,GI50,[47],> 100 µM
same,TGI,[47],> 100 µM
same,GI50,[48],36.9 µM
same,TGI,[48],> 100 µM
same,GI50,[49],21 µM
same,TGI,[49],58.9 µM
same,GI50,[50],> 100 µM
same,TGI,[50],> 100 µM
same,GI50,[51],> 100 µM
same,TGI,[51],> 100 µM
same,GI50,[52],> 100 µM
same,TGI,[52],> 100 µM
same,GI50,[53],8.56 µM
same,TGI,[53],26.3 µM
same,GI50,[54],> 100 µM
same,TGI,[54],> 100 µM
same,GI50,[55],38.5 µM
same,TGI,[55],> 100 µM
